Measurements reported in patent publication US7087214B2, “Water-soluble porphyrin platinum compounds with high tumor selectivity and their use for the treatment of benign and malignant tumor diseases” (Zentaris GmbH, priority 2002, dated 2006).

Legend:
[1] = system: TCC-SUP cells; test: End-point chemosensitivity assay, hematoporphyrin platinum derivatives, dark and irradiated (600–730 nm); assay type: cell-based, human; conditions: 1 μM concentration; hematoporphyrin-platinum series; bladder cancer cells TCC-SUP
Text: (§1) Data of the cytotoxic effect was obtained, for instance, on the human tumor cell lines TCC-SUP and J82. The effect of the compounds was investigated in the dark and under irradiation with light at a wavelength of 600–730 nm. Selected compounds are clearly more activ cytotoxically under irradiation. There is a synergism between the cytotoxic effect of the platinum component and the photodynamic principle.
(§2) To determine the antiproliferative activity of the new porphyrin ligands and the corresponding platinum complexes with different amine non-leaving groups two bladder cancer cell lines TCC-SUP and J82 were selected as in vitro models.
(§3) To discriminate between the cytotoxic and phototoxic effects all experiments were carried out in duplicate. The cells were seeded into microplates and the test compounds were added after 48 h. One batch of the microplates was kept in the dark until the end of the experiment, whereas the other microplates were irradiated 48 h after addition of the substances for 10 min with a light dose of 24 J·cm^−2, before the plates were reincubated in the dark.
(§4) End-Point Chemosensitivity Assay.
Hematoporphyrin Platinum Derivatives Type.

[2] = system: bladder cancer cell lines TCC-SUP and J82; test: End-point chemosensitivity assay, tetraarylporphyrin platinum derivatives, dark and irradiated (600–730 nm); assay type: cell-based, human; conditions: 1 μM concentration; tetraarylporphyrin-platinum series
Text: as §1, §2, §3, §4
Tetraarylporphyrin Platinum Derivatives Type.

`N.N.[Cl][Pt][Cl]` [cisplatin] was tested, and the T/Ccorr. [1] was “approximately 2%”.
“(+)-trans-1,2-Diaminocyclohexane[2-(4-{10,15,20-tris[4-(1,4,7,10-tetraoxaundecyl)phenyl]porphyrin-5-yl}phenoxy)malonato]platinum(II) [compound 29]” was tested, and the T/Ccorr. [2] was ~57%.
